Molecules are shown by their SMILES. pIC50, pKi: −log10 of the molar value. Where only a bound is given, the exact number is not on record here.

Here are results for 11 molecules from ChEMBL document CHEMBL1130188, “Synthesis and stereochemical structure-activity relationships of 1,3-dioxoperhydropyrido[1,2-c]pyrimidine derivatives: potent and selective cholecystokinin-A receptor antagonists” (J Med Chem, 1997).

Experiment [1] deals with T1, Cholecystokinin receptor type A (Rattus norvegicus, UniProt P30551).
T1 sequence (P30551 whole entry): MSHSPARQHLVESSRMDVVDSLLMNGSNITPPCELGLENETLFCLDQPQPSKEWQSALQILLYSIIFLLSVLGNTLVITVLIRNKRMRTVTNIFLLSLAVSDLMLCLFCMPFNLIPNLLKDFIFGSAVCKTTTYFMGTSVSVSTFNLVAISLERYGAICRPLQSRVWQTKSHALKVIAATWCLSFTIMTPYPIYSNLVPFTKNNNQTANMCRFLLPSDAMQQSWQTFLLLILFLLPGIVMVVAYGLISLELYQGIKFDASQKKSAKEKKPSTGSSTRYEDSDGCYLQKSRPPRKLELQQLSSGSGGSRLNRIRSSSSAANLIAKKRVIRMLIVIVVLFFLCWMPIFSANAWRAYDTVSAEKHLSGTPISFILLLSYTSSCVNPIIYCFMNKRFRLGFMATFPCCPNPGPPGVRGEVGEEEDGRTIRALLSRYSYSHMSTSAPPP
Description: Inhibition of [3H]pCCK-8 specific binding to Cholecystokinin type A receptor of rat pancreas.

Experiment [2] concerns the target T2, Gastrin/cholecystokinin type B receptor (Rattus norvegicus, UniProt P30553).
T2 sequence (P30553 whole entry): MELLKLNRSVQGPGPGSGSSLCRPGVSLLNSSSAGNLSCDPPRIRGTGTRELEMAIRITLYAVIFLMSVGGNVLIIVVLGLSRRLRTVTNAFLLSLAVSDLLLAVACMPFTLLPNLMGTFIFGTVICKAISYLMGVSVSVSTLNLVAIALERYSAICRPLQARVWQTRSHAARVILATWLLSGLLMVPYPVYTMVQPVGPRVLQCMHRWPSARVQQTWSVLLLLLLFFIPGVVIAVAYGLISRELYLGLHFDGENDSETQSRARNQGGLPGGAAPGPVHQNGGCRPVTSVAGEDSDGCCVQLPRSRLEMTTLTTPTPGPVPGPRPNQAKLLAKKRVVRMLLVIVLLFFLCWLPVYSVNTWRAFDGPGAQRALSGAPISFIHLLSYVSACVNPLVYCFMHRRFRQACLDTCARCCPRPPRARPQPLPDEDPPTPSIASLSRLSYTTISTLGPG
The experiment can be described thus: Inhibition of [3H]- pCCK-8 binding to Cholecystokinin type B receptor of rat cerebral cortex membranes. The class given is cell membranes, Membrane.

Experiment [3] is filed under the species Rattus norvegicus. Description: Compound was tested for inhibition of amylase release stimulated by CCK-8 (0.5 nM) in dispersed pancreatic acini.

Consider `CC(C)(C)OC(=O)N[C@H](Cc1c[nH]c2ccccc12)C(=O)N[C@H]1CCCN2C(=O)N(Cc3ccccc3)C(=O)C[C@@H]12`, for which the negative logarithm of the Ki (pKi) (as a rule, −log10 of the Ki, conventionally taken in molar units) in experiment [1] was 6.53; in experiment [2], less than 5.30.
The like results for `COC(=O)[C@]1(Cc2ccccc2)C[C@@H]2[C@@H](NC(=O)[C@@H](Cc3c[nH]c4ccccc34)NC(=O)OC(C)(C)C)CCCN2C1=O` were, in that order, less than 5.30 and 5.81.
On to `CN1C(=O)[C@H](NC(=O)c2cc3ccccc3[nH]2)N=C(c2ccccc2)c2ccccc21`, for which the pIC50 – broadly, −log10 of the IC50, conventionally taken in molar units – in experiment [3] was 7.60.
Turning to `CC(C)(C)OC(=O)N[C@H](Cc1c[nH]c2ccccc12)C(=O)N[C@H]1CCCN2C(=O)N(Cc3ccccc3)C(=O)C[C@H]12`, the pKi in experiment [1] and in experiment [2] was less than 5.30 in each case.
In the case of `CC(C)(C)OC(=O)N[C@@H](Cc1c[nH]c2ccccc12)C(=O)N[C@@H]1CCCN2C(=O)N(Cc3ccccc3)C(=O)C[C@H]12`, in experiment [3], the negative logarithm of the IC50 (pIC50) is 6.70. Also, the pKi in experiment [1] is 7.97; in experiment [2] it was 5.56.
In turn, `COC(=O)[C@@]1(Cc2ccccc2)C[C@@H]2[C@@H](NC(=O)[C@H](Cc3c[nH]c4ccccc34)NC(=O)OC(C)(C)C)CCCN2C1=O` gave a pKi in experiment [2] of less than 5.30.
Regarding `CC(C)(C)OC(=O)N[C@@H](Cc1c[nH]c2ccccc12)C(=O)N[C@H]1CCCN2C(=O)N(Cc3ccccc3)C(=O)C[C@H]12`, the negative logarithm of the Ki (pKi) in experiment [1] was 6.24; in experiment [2], less than 5.30.
The corresponding values for `CC(C)(C)OC(=O)N[C@H](Cc1c[nH]c2ccccc12)C(=O)N[C@@H]1CCCN2C(=O)N(Cc3ccccc3)C(=O)C[C@@H]12` are less than 5.30 and 5.72.
As to `CC(C)(C)OC(=O)N[C@H](Cc1c[nH]c2ccccc12)C(=O)N[C@@H]1CCCN2C(=O)N(Cc3ccccc3)C(=O)C[C@H]12`, the negative logarithm of the Ki (pKi) in experiment [2] was less than 5.30.
In experiment [3], `CC(C)(C)OC(=O)N[C@@H](Cc1c[nH]c2ccccc12)C(=O)N[C@H]1CCCN2C(=O)N(Cc3ccccc3)C(=O)C[C@@H]12` had a pIC50 of 7.67. Further, the figures for the negative logarithm of the Ki (pKi) in experiment [1] and in experiment [2] were 9.21 and less than 5.30, respectively.
As for `CC(C)(C)OC(=O)N[C@@H](Cc1c[nH]c2ccccc12)C(=O)N[C@@H]1CCCN2C(=O)N(Cc3ccccc3)C(=O)C[C@@H]12` [IQM-95333], the pKi in experiment [1] and in experiment [2] was 5.54 throughout.
